From patent US9642789B2, “Methods for generating new hair follicles, treating baldness, and hair removal” (THE TRUSTEES OF THE UNIVERSITY OF PENNSYLVANIA, priority 2005, dated 2017)
“Also recorded” adds a separate entry of the source.

Biological target: T1, EGF receptor (Mus musculus, UniProt Q01279)
T1 construct: from tissue; host or cells: healing skin wound of live mice
Assay: EDIHN after single injection of EGF receptor inhibitor into wound
Assay type: in vivo, mice
Conditions: 150 μM in 10 μL, single injection 11 days after 1 cm^2 incisional wounding; K17 and AP staining
Description: To determine the effect of administration of EGF receptor inhibitors on DIHN, the inhibitor AG1478 (150 μM in 10 μL volume) was administered as a single injection 11 days after incisional wounding (1 cm^2) to the middle of the wound near the skin surface. […] Left panel: epidermis stained for K17, with three large hair follicles next to each other. Right panel: dermis stained for AP with large coalescing dermal papilla areas.

T1 sequence (Q01279 25-1210): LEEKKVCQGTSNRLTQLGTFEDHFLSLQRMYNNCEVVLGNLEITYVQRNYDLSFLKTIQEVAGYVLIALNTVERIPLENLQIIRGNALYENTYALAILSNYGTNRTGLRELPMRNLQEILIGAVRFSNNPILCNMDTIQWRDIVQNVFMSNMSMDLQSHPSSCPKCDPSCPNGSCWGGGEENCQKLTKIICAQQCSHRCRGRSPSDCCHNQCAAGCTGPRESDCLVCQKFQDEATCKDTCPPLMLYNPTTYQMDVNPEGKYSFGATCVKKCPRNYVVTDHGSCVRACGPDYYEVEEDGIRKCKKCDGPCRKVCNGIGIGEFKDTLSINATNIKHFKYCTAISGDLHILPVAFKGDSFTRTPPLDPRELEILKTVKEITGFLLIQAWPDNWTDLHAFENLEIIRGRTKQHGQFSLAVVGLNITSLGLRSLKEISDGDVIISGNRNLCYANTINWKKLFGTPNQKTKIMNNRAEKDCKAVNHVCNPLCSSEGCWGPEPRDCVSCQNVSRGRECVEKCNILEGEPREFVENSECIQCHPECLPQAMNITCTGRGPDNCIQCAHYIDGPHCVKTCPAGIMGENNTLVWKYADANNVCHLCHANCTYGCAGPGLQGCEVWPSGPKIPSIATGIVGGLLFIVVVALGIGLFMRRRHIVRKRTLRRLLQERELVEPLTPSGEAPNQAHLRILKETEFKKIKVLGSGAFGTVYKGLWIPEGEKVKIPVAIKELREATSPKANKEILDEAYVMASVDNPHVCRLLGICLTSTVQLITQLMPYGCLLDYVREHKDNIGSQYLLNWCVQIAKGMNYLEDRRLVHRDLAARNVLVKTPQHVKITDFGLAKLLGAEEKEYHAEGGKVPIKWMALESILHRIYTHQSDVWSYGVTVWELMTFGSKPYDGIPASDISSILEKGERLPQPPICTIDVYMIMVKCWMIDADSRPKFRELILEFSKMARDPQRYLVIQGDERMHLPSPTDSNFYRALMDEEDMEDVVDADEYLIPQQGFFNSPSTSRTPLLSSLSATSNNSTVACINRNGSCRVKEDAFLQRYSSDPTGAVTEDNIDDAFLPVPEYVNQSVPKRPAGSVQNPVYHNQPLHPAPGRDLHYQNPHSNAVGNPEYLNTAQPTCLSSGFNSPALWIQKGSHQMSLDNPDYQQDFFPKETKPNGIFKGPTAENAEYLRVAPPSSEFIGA

In the case of COc1cc2ncnc(Nc3cccc(Cl)c3)c2cc1OC [AG1478], the “number and size of hair follicles generated compared with control mice wounded only” value is reported as “more and larger hair follicles; also recorded: more and larger HF”.
